Measurements as given in patent publication US12637427B2, “ALDH-2 inhibitor compounds and methods of use” (Amygdala Neurosciences, Inc., priority 2022, dated 2026).

Columns and labels:
Format in all cases: biochemical
recombinant human ALDH-2 = biological target: T1, recombinant human ALDH-2 (Homo sapiens, UniProt P05091); experiment: ALDH-2 inhibition assay; settings: 60 min pre-incubation; 10 μM = highest concentration tested; read-out: Enzymatic Assays IC50 ALDH2
T1 sequence (P05091 18-517): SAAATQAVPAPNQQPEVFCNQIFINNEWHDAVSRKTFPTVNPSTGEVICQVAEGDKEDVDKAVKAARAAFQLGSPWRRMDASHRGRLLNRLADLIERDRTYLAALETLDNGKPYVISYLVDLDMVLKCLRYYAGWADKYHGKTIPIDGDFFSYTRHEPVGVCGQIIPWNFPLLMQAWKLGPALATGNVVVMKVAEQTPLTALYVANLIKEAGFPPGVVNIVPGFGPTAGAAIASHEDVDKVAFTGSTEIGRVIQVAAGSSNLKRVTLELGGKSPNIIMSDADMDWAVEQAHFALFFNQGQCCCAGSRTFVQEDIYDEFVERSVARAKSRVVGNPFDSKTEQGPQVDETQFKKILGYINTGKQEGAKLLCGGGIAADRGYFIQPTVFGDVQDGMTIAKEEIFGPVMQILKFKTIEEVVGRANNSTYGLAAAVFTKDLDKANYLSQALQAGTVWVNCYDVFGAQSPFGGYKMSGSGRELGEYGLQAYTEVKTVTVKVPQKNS
Procedure: A. ALDH-2 inhibition assay: The ALDH-2 reaction mixture used in the assay contained 125 μM formaldehyde, 75 μM NAD+, 20 mM NaCl, 10 mM MgCl2, and 20 nM recombinant human ALDH-2 in 50 mM Hepes buffer, pH 7.5 in a final volume of 10 μL using 384-well Corning 3820 plates. After 60 min of pre-incubation of the test ALDH-2 inhibitor compound with ALDH-2, the reaction was started by adding NAD+ and formaldehyde and the assay reaction mixture was allowed to proceed for 60 minutes. Activity of the ALDH-2 enzyme was determined by monitoring NADH formation using Perkin-Elmer Envision Reader with excitation and emission wavelengths set at 340 and 460 nm, respectively.

recombinant human ALDH-1 = biological target: T2, recombinant human ALDH-1 (Homo sapiens, UniProt P00352); experiment: ALDH-1 inhibition assay; settings: 60 min pre-incubation; 10 μM = highest concentration tested; read-out: Enzymatic Assays IC50 ALDH-1
T2 sequence (P00352 1-501): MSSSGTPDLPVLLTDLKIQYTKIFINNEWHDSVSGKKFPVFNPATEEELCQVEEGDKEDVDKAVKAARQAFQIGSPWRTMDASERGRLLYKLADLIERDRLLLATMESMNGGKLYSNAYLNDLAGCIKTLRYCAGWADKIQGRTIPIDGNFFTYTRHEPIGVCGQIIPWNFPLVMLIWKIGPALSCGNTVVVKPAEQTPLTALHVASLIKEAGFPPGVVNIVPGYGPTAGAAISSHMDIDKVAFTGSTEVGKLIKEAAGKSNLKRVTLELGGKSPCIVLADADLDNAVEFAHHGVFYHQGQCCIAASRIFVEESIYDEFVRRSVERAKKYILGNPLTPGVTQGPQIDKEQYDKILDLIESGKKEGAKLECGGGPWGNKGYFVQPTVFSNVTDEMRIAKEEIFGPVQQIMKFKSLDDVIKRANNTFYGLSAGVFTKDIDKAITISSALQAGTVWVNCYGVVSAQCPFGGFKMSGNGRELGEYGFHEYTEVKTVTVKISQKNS
Procedure: B. ALDH-1 inhibition assay: The ALDH-1 reaction mixture used in the assay contained 100 μM formaldehyde, 2.5 mM NAD+, 20 mM NaCl, 10 mM MgCl2, 1 mM dithiothreitol (DTT; reducing agent), and 50 nM recombinant human ALDH-1 in 50 mM Hepes buffer, pH 7.5 in a final volume of 10 μL using 384-well Corning 3820 plates. After 60 min of pre-incubation of the test ALDH-2 inhibitor compound with ALDH-1, the reaction was started by adding NAD+ and formaldehyde and the assay reaction mixture was allowed to proceed for 60 minutes. Activity of the ALDH-1 enzyme was determined by monitoring NADH formation using Perkin-Elmer Envision Reader with excitation and emission wavelengths set at 340 and 460 nm, respectively.

recombinant human ALDH-3 = biological target: T3, recombinant human ALDH-3 (Homo sapiens, UniProt P30838); experiment: ALDH-3 inhibition assay; settings: 60 min pre-incubation; 10 μM = highest concentration tested; read-out: Enzymatic Assays IC50 ALDH-3
T3 sequence (P30838 1-453): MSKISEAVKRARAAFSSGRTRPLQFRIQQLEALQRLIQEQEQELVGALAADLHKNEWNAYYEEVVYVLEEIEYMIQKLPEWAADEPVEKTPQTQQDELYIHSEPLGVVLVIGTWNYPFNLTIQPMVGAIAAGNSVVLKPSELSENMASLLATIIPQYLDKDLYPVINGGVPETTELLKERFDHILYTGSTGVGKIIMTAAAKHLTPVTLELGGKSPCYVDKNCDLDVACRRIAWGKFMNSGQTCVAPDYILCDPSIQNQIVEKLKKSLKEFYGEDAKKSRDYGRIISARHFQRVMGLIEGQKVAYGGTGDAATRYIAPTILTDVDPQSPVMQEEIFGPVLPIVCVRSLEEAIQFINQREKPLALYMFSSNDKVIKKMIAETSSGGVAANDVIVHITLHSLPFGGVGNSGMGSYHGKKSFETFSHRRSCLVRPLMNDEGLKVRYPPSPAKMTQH
Procedure: ALDH-3 inhibition assay: The ALDH-3 reaction mixture used in the assay contained 200 μM benzaldehyde, 2.5 mM NAD+, 20 mM NaCl, 10 mM MgCl2, and 10 nM recombinant human ALDH-3 in 50 mM Hepes buffer, pH 7.5 in a final volume of 10 μL using 384-well Corning 3820 plates. After 60 min of pre-incubation of the test ALDH-2 inhibitor compound with ALDH-3, the reaction was started by adding NAD+ and benzaldehyde and the assay reaction mixture was allowed to proceed for 60 minutes. Activity of the ALDH-3 enzyme was determined by monitoring NADH formation using Perkin-Elmer Envision Reader with excitation and emission wavelengths set at 340 and 460 nm, respectively.

MAO-B = biological target: T4, MAO-B (Homo sapiens, UniProt P27338); experiment: MAO-B inhibition assay; settings: 20 min pre-incubation; 10 μM = highest concentration tested; read-out: Enzymatic Assays IC50 MAO-B
T4 sequence (P27338 1-520): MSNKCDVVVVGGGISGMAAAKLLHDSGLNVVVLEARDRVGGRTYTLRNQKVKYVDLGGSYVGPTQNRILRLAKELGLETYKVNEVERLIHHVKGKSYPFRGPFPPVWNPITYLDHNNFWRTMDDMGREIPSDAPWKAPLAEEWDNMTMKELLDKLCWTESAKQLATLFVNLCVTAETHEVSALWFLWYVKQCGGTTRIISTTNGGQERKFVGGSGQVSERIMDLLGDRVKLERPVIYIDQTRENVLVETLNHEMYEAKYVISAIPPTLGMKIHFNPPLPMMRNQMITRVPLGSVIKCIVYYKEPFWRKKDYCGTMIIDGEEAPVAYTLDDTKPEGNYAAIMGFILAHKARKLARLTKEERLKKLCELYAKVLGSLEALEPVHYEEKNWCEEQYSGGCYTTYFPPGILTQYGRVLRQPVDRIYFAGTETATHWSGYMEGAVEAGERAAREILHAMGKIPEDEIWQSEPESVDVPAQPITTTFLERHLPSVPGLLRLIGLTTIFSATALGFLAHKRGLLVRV
Procedure: D. MAO-A and MAO-B inhibition assays: MAO assays included luminogenic MAO substrate, reaction buffers, Luciferin Detection, and a reconstitution buffer with esterase. The MAO reaction mixture used in the assay included microsome contained MAO-A (2 μg) or MAO-B (10 μg), 160 μM substrate for MAO-A or 16 μM substrate for MAO-B, MAO-A buffer (100 mM Hepes buffer, pH 7.5, 5% glycerol) or MAO-B buffer (100 mM Hepes, pH 7.5, 5% glycerol, 10% dimethyl sulfoxide) in a final volume of 30 μL. After 20 minutes of pre-incubation of the MAO-A or MAO-B enzyme with the test ALDH-2 inhibitor compound, the reaction was initiated by adding enzyme substrate and the […] reaction was allowed to proceed for 60 minutes. Reconstituted Luciferin Detection Reagent (30 μL) was then added is added to simultaneously stop the MAO reaction and convert the methyl ester derivative to luciferin and produce light. The amount of light produced is directly proportional to the activity of MAO. The mixtures were further incubated for 20 minutes and activity of the enzyme was determined using Perkin-Elmer Envision Reader.

Row | SMILES | IC50 (recombinant human ALDH-2) [µM] | IC50 (recombinant human ALDH-1) [µM] | IC50 (recombinant human ALDH-3) [µM] | IC50 (MAO-B) [µM]
1 | Cc1nccc(Br)c1C(=O)NCc1ccc(-c2[nH]c(=O)ccc2F)cc1 [(1g), 4-Bromo-N-(4-(3-fluoro-6-oxo-1,6-dihydropyridin-2-yl)benzyl)-2-methylnicotinamide] | 0.028 | > 10 | > 10 | > 10
2 | Cc1cccc(Cl)c1C(=O)NCc1ccc(-c2cccc(=O)[nH]2)cc1 [(1a), 2-Chloro-6-methyl-N-(4-(6-oxo-1,6-dihydropyridin-2-yl)benzyl)benzamide] | 0.078 | > 10 | > 10 | > 10
3 | Cc1cccc(Cl)c1C(=O)NCc1ccc(-c2cccc(=O)[nH]2)nc1 [(1k), 2-Chloro-6-methyl-N-((6′-oxo-1′,6′-dihydro-[2,2′-bipyridin]-5-yl)methyl)benzamide] | 0.01 | > 10 | > 10 | > 10

Other lines, results leading:

Row | IC50 (recombinant human ALDH-2) [µM] | IC50 (recombinant human ALDH-1) [µM] | IC50 (recombinant human ALDH-3) [µM] | IC50 (MAO-B) [µM] | SMILES
4 | 0.137 | > 10 | > 10 | > 10 | O=C(NCc1ccc(-c2cccc(=O)[nH]2)cc1)c1ccccc1Cl [(1b), 2-Chloro-N-(4-(6-oxo-1,6-dihydropyridin-2-yl)benzyl)benzamide]
5 | 0.118 | > 10 | > 10 | > 10 | O=C(NCc1ccc(-c2cccc(=O)[nH]2)nc1)c1ccccc1Cl [(1l), 2-chloro-N-((6′-oxo-1′,6′-dihydro-[2,2′-bipyridin]-5-yl)methyl)benzamide]
6 | 0.128 | > 10 | > 10 | > 10 | Cc1nccc(Cl)c1C(=O)NCc1ccc(-c2cccc(=O)[nH]2)cc1 [(1c), 4-Chloro-2-methyl-N-(4-(6-oxo-1,6-dihydropyridin-2-yl)benzyl)nicotinamide]
